Results taken from patent publication US20250304567A1, “PYRROLIDIONE DERIVATIVES AS INHIBITORS OF NF KAPPA B INDUCING KINASE” (priority 2022, published 2025).

Legend:
[1] = tested on: p-IKKa levels in L363 (NIK translocated multiple myeloma) cells; assay: Effect of compounds on p-IKKa levels in L363 (NIK translocated multiple myeloma) cells (AlphaLISA SureFire Ultra p-IKKa Ser176/180); format: cell-based, human; conditions: Homo sapiens, L-363, p-IKKa levels in L363 cells; average if tested more than once; read-out: Assay 2 IC50
Outline: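 Phospho-IKKa (Ser176/180) in lysates quantified by AlphaLISA after 6 h compound exposure, 11-point threefold dilutions, 0.3% DMSO. L363 cells were pre-stimulated overnight and assayed with 250 ng/ml BAFF and 10 μM MG132; % inhibition fitted sigmoidally for IC50, duplicate curves.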

[2] = target: Recombinant Human NF-kappaB-Inducing Kinase (NIK/MAP3K14) (Homo sapiens, UniProt Q99558); assay: Inhibition of auto-phosphorylation of recombinant human NIK/MAP3K14 activity (AlphaScreen); format: biochemical; conditions: 5 μM ATP, 1 nM NIK, average if tested more than once
Outline: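 AlphaScreen detection of phospho-Ser176/180 after 1 nM GST-NIK auto-phosphorylates for 2 h at 25 °C with 5 μM ATP (50 mM Tris pH 7.5, 0.7% DMSO). IC50s come from sigmoidal curves of % inhibition against log dose, using enzyme-free, ATP-free low controls and full-activity high controls.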

Chain of Recombinant Human NF-kappaB-Inducing Kinase (NIK/MAP3K14) (Q99558 whole entry): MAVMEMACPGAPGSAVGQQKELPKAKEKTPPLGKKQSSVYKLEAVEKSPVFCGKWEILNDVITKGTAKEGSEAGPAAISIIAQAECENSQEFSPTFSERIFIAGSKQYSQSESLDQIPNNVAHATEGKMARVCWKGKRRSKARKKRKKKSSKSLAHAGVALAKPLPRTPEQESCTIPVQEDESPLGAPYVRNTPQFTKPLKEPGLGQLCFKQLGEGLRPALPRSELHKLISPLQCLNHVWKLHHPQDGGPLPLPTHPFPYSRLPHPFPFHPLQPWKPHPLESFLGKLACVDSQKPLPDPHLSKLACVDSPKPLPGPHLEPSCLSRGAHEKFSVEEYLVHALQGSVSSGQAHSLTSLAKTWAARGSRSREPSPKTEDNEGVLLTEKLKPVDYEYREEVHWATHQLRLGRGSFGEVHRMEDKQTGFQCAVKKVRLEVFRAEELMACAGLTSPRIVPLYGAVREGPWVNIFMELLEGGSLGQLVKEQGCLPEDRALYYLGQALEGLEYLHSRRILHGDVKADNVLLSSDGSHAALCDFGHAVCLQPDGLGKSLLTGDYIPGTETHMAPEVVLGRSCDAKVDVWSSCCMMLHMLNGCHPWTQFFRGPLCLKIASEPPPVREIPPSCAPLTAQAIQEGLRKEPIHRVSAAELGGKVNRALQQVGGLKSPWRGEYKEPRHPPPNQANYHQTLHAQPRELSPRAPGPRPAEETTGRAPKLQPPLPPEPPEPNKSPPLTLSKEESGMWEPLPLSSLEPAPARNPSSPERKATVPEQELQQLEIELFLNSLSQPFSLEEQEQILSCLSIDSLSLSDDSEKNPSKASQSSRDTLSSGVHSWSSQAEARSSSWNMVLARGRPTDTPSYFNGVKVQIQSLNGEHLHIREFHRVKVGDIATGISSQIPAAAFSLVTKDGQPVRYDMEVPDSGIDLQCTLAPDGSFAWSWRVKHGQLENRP

Structure (SMILES)	IC50 [1] [nM]	IC50 [2] [nM]
COCCn1nc(C)cc1Nc1nccc(-c2csc(-c3cccc([C@]4(O)CCN(C)C4=O)c3)n2)n1 [Example 107, (R)-3-hydroxy-3-(3-(4-(2-((1-(2-methoxyethyl)-3-methyl-1H-pyrazol-5-yl)amino)pyrimidin-4-yl)thiazol-2-yl)phenyl)-1-methylpyrrolidin-2-one]	> 501	> 501
CN1CC[C@@](O)(c2cccc(-c3ccn(-c4ccnc(Nc5cn(CC(F)F)nc5OC5CC5)n4)n3)c2)C1=O [Example 102, (R)-3-(3-(1-(2-((3-cyclopropoxy-1-(2,2-difluoroethyl)-1H-pyrazol-4-yl)amino)pyrimidin-4-yl)-1H-pyrazol-3-yl)phenyl)-3-hydroxy-1-methylpyrrolidin-2-one]	< 100	< 100
CN1CC[C@@](O)(c2cccc(-c3nc(-c4ccnc(NCCCNS(C)(=O)=O)n4)cs3)c2)C1=O [Example 231]	> 501	100 to 500
CN1CC[C@@](O)(c2cccc(-c3nc(-c4ccnc(NCc5ncccn5)n4)cs3)c2)C1=O [Example 218]	> 501	100 to 500
COCCn1cc(Nc2nccc(-c3nc(-c4cccc([C@]5(O)CCN(C)C5=O)c4)cs3)n2)cn1 [Example 86, (R)-3-hydroxy-3-(3-(2-(2-((1-(2-methoxyethyl)-1H-pyrazol-4-yl)amino)pyrimidin-4-yl)thiazol-4-yl)phenyl)-1-methylpyrrolidin-2-one]	< 100	< 100
CN1CC[C@@](O)(c2cccc(-c3nc(-c4ccnc(NCc5ccnn5C)n4)cs3)c2)C1=O [Example 197]	> 501	< 100
CN1CC[C@@](O)(c2cccc(-c3nc(-c4ccnc(NC5CCc6cccnc65)n4)cs3)c2)C1=O (stereo partly shown) [Example 225]	> 501	100 to 500
CN(C)C(=O)Cn1ccc(Nc2nccc(-c3csc(-c4cccc([C@]5(O)CCN(C)C5=O)c4)n3)n2)n1 [Example 262, (R)-2-(3-((4-(2-(3-(3-Hydroxy-1-methyl-2-oxopyrrolidin-3-yl)phenyl)thiazol-4-yl)pyrimidin-2-yl)amino)-1H-pyrazol-1-y)-N,N-dimethylacetamide]	> 501	< 100
C[C@H](Nc1nccc(-c2csc(-c3cccc([C@]4(O)CCN(C)C4=O)c3)n2)n1)c1cn[nH]c1 (single isomer, unassigned) [Example 138]	> 501	< 100
CC(=O)N1CC[C@@H](Nc2nccc(-c3csc(-c4cccc([C@]5(O)CCN(C)C5=O)c4)n3)n2)C1 [Example 212]	> 501	< 100
CN1CC[C@@](O)(c2cccc(-c3nc(-c4ccnc(NC5CC5)n4)cs3)c2)C1=O [Example 137, (R)-3-(3-(4-(2-(cyclopropylamino)pyrimidin-4-yl)thiazol-2-yl)phenyl)-3-hydroxy-1-methylpyrrolidin-2-one]	> 501	< 100
COc1ccnc(Nc2nccc(-c3csc(-c4cccc([C@]5(O)CCN(C)C5=O)c4)n3)n2)c1 [Example 162, (R)-3-Hydroxy-3-(3-(4-(2-((4-methoxypyridin-2-yl)amino)pyrimidin-4-yl)thiazol-2-yl)phenyl)-1-methylpyrrolidin-2-one]	> 501	< 100
CN1CC[C@@](O)(c2cccc(-c3nc(-c4ccnc(N[C@H]5C[C@H](O)C5)n4)cs3)c2)C1=O [Example 109, (R)-3-hydroxy-3-(3-(4-(2-(((1R,3R)-3-hydroxycyclobutyl)amino)pyrimidin-4-yl)thiazol-2-yl)phenyl)-1-methylpyrrolidin-2-one]	> 501	100 to 500
CN1CC[C@@](O)(c2cccc(-c3csc(-c4ccnc(Nc5cnn6ccccc56)n4)n3)c2)C1=O [Example 82, (R)-3-hydroxy-1-methyl-3-(3-(2-(2-(pyrazolo[1,5-a]pyridin-3-ylamino)pyrimidin-4-yl)thiazol-4-yl)phenyl)pyrrolidin-2-one]	< 100	< 100
